In patent US7642261B2, “Use of 1-[4-(5-cyanoindol-3-yl)butyl]-4-(2-carbamoyl-benzofuran-5-yl)-piperazine and its physiologically acceptable salts” (Merck Patent GmbH, priority 2002, dated 2010):

How the values were obtained:
Format in all cases: in vivo
rats [1] = assay: Social Interaction Test (model for social phobia); settings: pairs of unfamiliar rats, oral dose of 10 mg/kg, 300 sec total time; vehicle 116 sec
Description: A model for social phobia is the Social Interaction Test according to S. File, J. R. G Hyde, J. Pharm. Pharmacol. 1977, 29: 735-738. Pairs of rats not familiar with each other are placed in an open test box brightly lit (aversive condition), and the number and duration of social contacts during a 5 min test session are recorded.
1-[4-(5-cyanoindol-3-yl)butyl]-4-(2-carbamoyl-benzofuran-5-yl)-piperazine or one of its physiologically acceptable salts, in particular 1-[4-(5-cyanoindol-3-yl)butyl]-4-(2-carbamoyl-benzofuran-5-yl)-piperazine hydrochloride, increase the time spent in social interaction. For example, for an oral dose of 10 mg/kg of 1-[4-(5-cyanoindol-3-yl)butyl]-4-(2-carbamoyl-benzofuran-5-yl)-piperazine hydrochloride the pairs of rats unfamiliar to each other spend 144 sec of the 300 sec of total time with social interaction compared to 116 sec for the vehicle treated pairs of rats.

rats [2] = assay: Passive Avoidance test with scopolamine (model for dementia); settings: 10 mg/kg p.o., compared to untreated rats
Excerpt: (§1) Typical models for dementia, Alzheimer's disease and multi-infarct are the Passive Avoidance test in rats [S. D. Glick and B. Zimmerberg, Behav. Biol., 1972, 7: 245-254; D. K. Rush, Behav. Neural Biol., 1988, 50: 255-274] and the testing of memory functions in the Morris Water Maze in aged rats [R. Morris, J. Neurosci. Methods, 1984, 11: 47-60, F. H. Gage et al. Neurobiol. Aging. 1984, 5: 43-48].
For the Passive Avoidance test, the apparatus is a runway separated from a dark compartment by a small door. The amnestic drug scopolamine is administered before the animal is submitted to an aquisition trial: the rat is placed on the entry of the runway opposite to the dark compartment, the latency to enter the dark compartment is recorded, and once the rat has entered the dark compartment, the door is closed and a foot schock is administered via the gridfloor. A retention trial is performed 48 h later identical to the aquisition trial (without scopolamine) and the latency to enter the dark compartment recorded again. […]

rats [3] = tested on: rats
Description: A typical animal model is the drug discrimination procedure in rats using cocaine as the stimulus cue (e.g. D. M. Wood and M. W. Emmett-Oglesby, J. Pharmacol. Exp. Ther., 1986; 237: 120-125; D. Huang and M. C. Wilson, Pharmacol. Biochem. Behav., 1986; 24: 205-210; J. M. Witkin at al., J. Pharmacol. Exp. Ther, 1991; 257: 706-713). Rats are trained to discriminate 10 mg/kg cocaine from saline in a two-lever discrimination procedure. Compounds which substitute for cocaine produce a dose-dependent increase in cocaine-appropriate responding, i.e. in selecting the cocaine-paired lever.
1-[4-(5-cyanoindol-3-yl)butyl]-4-(2-carbamoyl-benzofuran-5-yl)-piperazine or one of its physiologically acceptable salts, in particular 1-[4-(5-cyanoindol-3-yl)butyl]-4-(2-carbamoyl-benzofuran-5-yl)-piperazine hydrochloride, dose-dependently but only partially substituted for cocaine (maximally 60% choise of cocaine-paired lever at 50 mg/kg p.o.).

[4] = Development of body weight, dogs
Excerpt: Thus, differential effects on body weight indicating therapeutic efficacy in either obesity or anorexia depending on the dose range used are evident.

mice = assay: Light-Dark Choice Test (model for generalized anxiety disorders); settings: oral dose of 10 mg/kg, 5 min
Description: A typical model for generalized anxiety disorders is the Light-Dark Chaise Test […] according to J. N. Crawly, Pharmacol. Biochem Behav. 1981,15: 695-699.
The light-dark choise apparatus consists of two connected boxes with one box darkened and the other one highly illuminated. A mouse is placed in one box, and the time spent in lit box and the number of transitions between boxes are measured over a period of 5 min. Normal mice only have low numbers of entries to the lit compartment and spent most time in the dark compartment.
1-[4-(5-cyanoindol-3-yl)butyl]-4-(2-carbamoyl-benzofuran-5-yl)-piperazine or one of its physiologically acceptable salts, in particular 1-[4-(5-cyanoindol-3-yl)butyl]-4-(2-carbamoyl-benzofuran-5-yl)-piperazine hydrochloride, following oral application dose -dependently increase the number of transitions and time spent in lit compartment. For example, an oral dose of 10 mg/kg of 1-[4-(5-cyanoindol-3-yl)butyl]-4-(2-carbamoyl-benzofuran-5-yl)-piperazine hydrochloride increased the number of transitions by 73% and time spent in lit compartment by 31%.

aged rats = assay: Morris Water Maze in aged rats; settings: old rats, tested at day 7, untreated old rats 95 sec, vehicle treated young rats 76 sec
Excerpt: as §1
The Morris Water Maze consists of a circular water tank (150 cm in diameter) filled with water with an escape platform (15 cm in diameter) 18 cm from the periphery beneath the surface of the water. The water is made opaque rendering the platform invisible. Rats placed in the tank swim around and find the hidden platform accidently after a certain time (latency), and the latency to find the platform is taken as measure. When given further training session to find the platform, rats show reduced latencies from day to day, i.e. remember (learn) the location of the platform. But compared to young rats, aged rats perform less well in learning over days reflecting impaired learning capacity. Drugs effective for dementia and particularly Alzheimers disease improve the earning capacity of aged rats.
1-[4-(5-cyanoindol-3-yl)butyl]-4-(2-carbamoyl-benzofuran-5-yl)-piperazine hydrochloride is administered to old rats at oral doses of 1 and 3 mg/kg every day. […]

rats [5] = assay: Elevated Plus Maze (model for agoraphobia), rats; settings: 10 mg/kg p.o., 3 min test period
Description: A typical model for Agoraphobia is named Elevated Plus Maze according to S. Pellow, P. Chopin, S. E. File, M. Briley, J. Neurosci. Meth., 1985,14: 145-167.
The apparatus consists of an X-shaped platform elevated from the floor, with two “open” unprotected arms and two “closed” protected arms, with animals having free access to both arms. The rat or mouse is placed in the centre of the arms, and the number of entires made and the time spent on the open arms is measured in a 3 min test period. Normal animals have very low basal levels, i.e. avoid entering the open arms and stay only a for a very brief period on open arms.
In rats, a dose of 10 mg/kg p.o. increased number of entries by 56% and time spent on open arms by 76%.

In the case of `Cl.N#Cc1ccc2[nH]cc(CCCCN3CCN(c4ccc5oc(C(N)=O)cc5c4)CC3)c2c1` [1-[4-(5-cyanoindol-3-yl)butyl]-4-(2-carbamoyl-benzofuran-5-yl)-piperazine hydrochloride], the “time spent in social interaction” value (rats [1]) is reported as 144 s, the “increase of latency to enter the dark compartment in the first retention trial” value (rats [2]) is reported as 78% and the “stimulus drug property by itself (abuse potential)” value (rats [3]; rat, in vivo) is reported as “does not serve as a stimulus drug by itself”. For the same compound, the “maximal choice of cocaine-paired lever (partial substitution for cocaine)” value (rats [3]; rats trained on 10 mg/kg cocaine vs saline, 50 mg/kg p.o.) was 60%, the “development of body weight” value [4] was “reduced development of body weight” and the “increase of number of transitions” value (mice) was 73%. For the same compound, the “increase of time spent in lit compartment” value (mice) was 31%, the “latency to find the platform in the first attempt” value (aged rats; oral 1 mg/kg every day) was 77 s and the “latency to find the platform in the first attempt” value (aged rats; oral 3 mg/kg every day) was 73 s. For the same compound, the “increase of number of entries on open arms” value (rats [5]) was 56% and the “increase of time spent on open arms” value (rats [5]) was 76%.
